System: glaucoma-associated-EV-complex in POAG patient's aqueous humor
Experiment: Treating POAG aqueous humor samples with bimatoprost, EDC fixation, negative staining and TEM imaging
Parameters: species or system human
Text: Methods for treating POAG aqueous humor samples with bimatoprost, and fixation of fluid with EDC, negative staining and TEM imaging. We sought to determine the effect of bimatoprost on EVs in aqueous humor of patients with glaucoma. To do this, we diluted the POAG aqueous humor sample with tris buffered saline (1:10 dilution) and added 1:1 volume of diluted POAG sample with either tris buffered saline (control) or bimatoprost. Lumigan was obtained directly from the dispensing bottle and was NOT diluted. 10 ul of POAG sample was mixed with 10 ul of TBS or 10 ul POAG sample was mixed with 10 ul of undiluted Lumigan. The tubes were then incubated in a thermocycler PCR machine and were allowed to sit for 72 hours at 37° C. The samples were then diluted (1:10). Next, we fixed with EDC on an electron microscopy grid using the following protocol. For 1 mls of EDC/ETT solution in 0.1 M 1-Methylimidazole buffer (pH 8.0). • 1. EDC-HCl powder should be stored at −20° C. under argon. To avoid condensation of humidity, only open bottles after they reached room temperature, i.e. take the bottle out of freezer 1 h before weighing out sample. • 2. EDC/5-ETT solution should be made at most 1 h prior to use. • 3. Pipette 5.76 ml of 0.1 M 1-Methylimidazole buffer (pH 8.0) into a 15 ml tube, vortex vigorously. • 4. Carefully spoon out the 0.078 g of ETT found in the “G” group, onto a piece of paper. Carefully pour the 0.078 g into the tube. • 5. Using the pH paper and pipet to check to be pH 8.0 • 6. Use a weighing paper to measure out 0.12 g of EDC. Carefully pour into the tube. Vortex vigorously. • 7. Discard unused solution. • 8. Using the pH paper and pipet to check to be pH 8.0 Poly L-lysine grids, EDC fixation, Glut-fixation, UA stain. • 1. Use formvar coated grids. • 2. Place them facing formvar side down to poly-lysine drops and let them sit for 5-10 min. • 3. Then you will withdraw the Poly-L-lysine • 4. Fasten down a piece of parchment paper to a 100 mm dish with tape or weight. Place grid down on parchment paper. Mix EDC solution with EVs • 1. Mix 2.5 ul of (Cold) EVs with 5 ul of (Cold) EDC solution in 1.5 ml siliconized tube. • 2. In the cold room, apply 5 μl sample (Aqueous humor) to the grid and wait 15 minutes to dry and for the EVs to settle to the bottom of the grid. • 3. Place in a humidified chamber and incubate at […] for at least 3 hours. Secondary Fixation with Glut • 1. Remove EDC-EV solution from the sample using a pipette. • 2. Fix with Glut, add 2-5 ul of glut fix and wait for 5 min • 3. Remove Glut with Pipet or lens paper Rinse Glut and EDC • 1. Apply water bubble to grid for 5 min • 2. Remove water bubble with pipette • 3. Add 5 ul of uranyl acetate onto grid (1 drop, blotting after the drop) • 4. Let grid dry, and place in grid box • 5. Take off stain with pipette Samples were then imaged with TEM. Treating large EV complexes with Bimatoprost breaks up the EV-complex, when compared to controls. To determine if glaucoma-associated-EV-aggregates visualized using the EDC fixation method were indeed a potential mediator of POAG, we hypothesized that treating it with a known glaucoma medication would change the morphology of the glaucoma-associated-EV-aggregates. Therefore, we opted to use Bimatoprost (lumigan), which is a ocular hypotensive agent that lowers IOP in normal, ocular hypertensive, and glaucomatous eyes. […]

With `CCNC(=O)CCC/C=C\C[C@@H]1[C@@H](/C=C/[C@@H](O)CCc2ccccc2)[C@H](O)C[C@@H]1O` [bimatoprost] the “evidence of large extracellular matrix or glaucoma-associated-EV-aggregates in TEM photographs” value (POAG aqueous humor samples treated with bimatoprost (FIG. 11 c-d)) was “no evidence of large extracellular matrix nor glaucoma-associated-EV-aggregates”, the “number of glaucoma-associated-EV-complex, compared to POAG sample with placebo treatment” value (POAG patient's aqueous humor, first subject (FIG. 11), undiluted Lumigan 1:1 with 1:10 diluted sample, 37° C. for 72 hours, TEM) was “substantial reduction” and the “size of POAG-associated EV complexes, compared to untreated glaucoma samples” value (aqueous humor of a patient with POAG (FIG. 11), TEM) was “reduces the size”. For the same compound, the “size of POAG-associated EV complexes, compared to control-treated glaucoma samples” value (aqueous humor of second subject with glaucoma (FIG. 13), TEM) was “reduces the size” and the “number of glaucoma-associated-EV-complexes, compared to placebo (buffered saline)” value (second human subject with glaucoma (FIG. 12-13), 37° C. for 72 hours, TEM) was “substantial reduction”.

— US11752175B2, “Compositions and methods for glaucoma” (AUFBAU MEDICAL INNOVATIONS LIMITED, priority 2018, dated 2023)
